Values after ≈ are worked out from the molar mass of the structure shown. Like-named read-outs stand apart in the source and are kept apart here.
How the values were obtained:
[1] = test system: MRSA ATCC 700699 (NRS1, VISA); assay: MIC/MBC broth microdilution, NRS1 (ATCC 700699); type: cell-based; conditions: Staphylococcus aureus
Protocol: (§1) Determination of minimum inhibitory concentration (MIC). The MICs of the lead thiazole compound (compound 1a) and nine derivatives tested against all 18 MRSA strains were determined, in triplicate samples, using the broth microdilution method in accordance with the recommendations contained in the CLSI guidelines.

[2] = test system: VISA HIP07256 (NRS19); assay: MIC/MBC broth microdilution, NRS19 (VISA HIP07256); type: cell-based; conditions: Staphylococcus aureus
Protocol: as §1

[3] = test system: MRSA USA400 (NRS123); assay: MIC/MBC broth microdilution, NRS123 (USA400); type: cell-based; conditions: Staphylococcus aureus
Protocol: as §1

[4] = test system: MRSA NRS384 (USA300); assay: MIC/MBC broth microdilution, NRS384 (USA300); type: cell-based; conditions: Staphylococcus aureus
Protocol: as §1

[5] = test system: MRSA USA500 (NRS385); assay: MIC/MBC broth microdilution, NRS385 (USA500); type: cell-based; conditions: Staphylococcus aureus
Protocol: as §1

[6] = test system: MRSA ATCC 43300; assay: MIC/MBC broth microdilution, MRSA ATCC 43300; type: cell-based, Staphylococcus aureus
Protocol: as §1

[7] = test system: VISA LIM 3 (NRS37); assay: MIC/MBC broth microdilution, NRS37 (VISA LIM 3); type: cell-based; conditions: Staphylococcus aureus, Table 8, NRS37 (VISA); for MIC: read-out: MIC
Protocol: as §1

[8] = test system: NRS107; assay: MIC/MBC broth microdilution, NRS107; type: cell-based; conditions: Staphylococcus aureus; for MIC: Table 8, read-out: MIC
Protocol: as §1

[9] = test system: NRS119; assay: MIC/MBC broth microdilution, NRS119; type: cell-based; conditions: Staphylococcus aureus, Table 8, NRS119; for MIC: read-out: MIC
Protocol: as §1

[10] = test system: NRS194; assay: MIC/MBC broth microdilution, NRS194; type: cell-based; conditions: Staphylococcus aureus; for MIC: Table 8, read-out: MIC
Protocol: as §1

[11] = Staphylococcus aureus, Table 6, MRSA ATCC 43300, 128 μM down to 1.0 μM, 20 hours, read-out: MIC
[12] = Staphylococcus aureus, Table 8, ATCC 43300, read-out: MIC
[13] = Table 8, NRS1 (VISA), triplicates, 20 hours, read-out: MIC
[14] = Table 8, NRS19 (VISA), read-out: MIC
[15] = Staphylococcus aureus, Table 4, MRSA ATCC 43300, 64 μM down to 0.5 μM, 37° C., 19 hours, read-out: Minimum Inhibitory Concentration
[16] = Table 5, MRSA NRS384 (USA300), 128 μM down to 1.0 μM, 37° C., 19 hours, read-out: Minimum Inhibitory Concentration

## CCCCCCCCCc1ccc(-c2nc(C)c(/C(C)=N/NC(=N)N)s2)cc1 [Compound 1f]
[1]; Table 2, MRSA ATCC 700699, read-out: Minimum Inhibitory Concentration
  MIC: 1.1 µg/mL
[2]; Table 2, VISA HIP07256, read-out: Minimum Inhibitory Concentration
  MIC: 2.2 µg/mL
[3]; Table 2, MRSA USA400, read-out: Minimum Inhibitory Concentration
  MIC: 4.4 µg/mL
[4]; Table 2, MRSA USA300, read-out: Minimum Inhibitory Concentration
  MIC: 2.2 µg/mL
[5]; Table 2, MRSA USA500, read-out: Minimum Inhibitory Concentration
  MIC: 4.4 µg/mL

## CCCCc1ccc(-c2nc(C)c(/C(C)=N/NC(=N)N/N=C(\C)c3sc(-c4ccc(CCCC)cc4)nc3C)s2)cc1 [Compound M1]
[6]; [11]
  MIC: > 128 µM

## C/C(=N\NC(=N)N)c1sc(-c2ccc(N)cc2)nc1C [Compound M2, (E)-2-(1-(2-(4-aminophenyl)-4-methylthiazol-5-yl)ethylidene)hydrazinecarboximidamide]
[6]; [11]
  MIC: > 128 µM
[6]; Staphylococcus aureus, Table 8, ATCC 43300, read-out: MBC
  MBC: 128 µM (≈ 36.9 µg/mL)
[6]; [12]
  MIC: 128 µM (≈ 36.9 µg/mL)
[1]; Table 8, NRS1 (VISA), read-out: MBC
  MBC: 128 µM (≈ 36.9 µg/mL)
[1]; [13]
  MIC: 64 µM
[2]; Table 8, NRS19 (VISA), read-out: MBC
  MBC: 128 µM (≈ 36.9 µg/mL)
[2]; [14]
  MIC: 128 µM
[7]; read-out: MBC
  MBC: 128 µM (≈ 36.9 µg/mL)
[7]
  MIC: 64 µM (≈ 18.5 µg/mL)
[8]; Table 8, read-out: MBC
  MBC: 64 µM (≈ 18.5 µg/mL)
[8]
  MIC: 64 µM (≈ 18.5 µg/mL)
[9]; read-out: MBC
  MBC: 64 µM (≈ 18.5 µg/mL)
[9]
  MIC: 64 µM (≈ 18.5 µg/mL)
[3]; Table 8, NRS123, read-out: MBC
  MBC: 128 µM (≈ 36.9 µg/mL)
[3]; Table 8, NRS123, read-out: MIC
  MIC: 128 µM
[10]; Table 8, read-out: MBC
  MBC: 128 µM (≈ 36.9 µg/mL)
[10]
  MIC: 128 µM (≈ 36.9 µg/mL)
[4]; Table 8, NRS384, read-out: MBC
  MBC: 128 µM (≈ 36.9 µg/mL)
[4]; Table 8, NRS384, read-out: MIC
  MIC: 128 µM
[5]; Table 8, NRS385, read-out: MBC
  MBC: 128 µM (≈ 36.9 µg/mL)
[5]; Table 8, NRS385, read-out: MIC
  MIC: 128 µM

## C/C(=N\NC(=N)N/N=C(\C)c1sc(-c2ccc(N)cc2)nc1C)c1sc(-c2ccc(N)cc2)nc1C [Compound M3]
[6]; [11]
  MIC: > 128 µM

## CC(=O)c1sc(-c2ccc(-c3ccc(O)cc3)cc2)nc1C [Compound M4, 1-(2-(4′-hydroxy-[1,1′-biphenyl]-4-yl)-4-methylthiazol-5-yl)ethanone]
[6]; [11]
  MIC: > 128 µM

## C/C(=N/NC(=N)N)c1sc(-c2ccc(-c3ccc(O)cc3)cc2)nc1C [Compound M5, (Z)-2-(1-(2-(4′-hydroxy-[1,1′-biphenyl]-4-yl)-4-methylthiazol-5-yl)ethylidene)hydrazinecarboximidamide]
[6]; [11]
  MIC: > 128 µM

## CC(=O)c1sc(-c2ccc(-c3cccc4ccccc34)cc2)nc1C [Compound M6, 1-(4-methyl-2-(4-(naphthalen-1-yl)phenyl)thiazol-5-yl)ethanone]
[6]; [11]
  MIC: > 128 µM
[6]; [12]
  MIC: > 128 µM
[1]; [13]
  MIC: > 128 µM
[2]; [14]
  MIC: > 128 µM
[7]
  MIC: > 128 µM
[8]
  MIC: > 128 µM
[9]
  MIC: > 128 µM
[3]; Table 8, NRS123, read-out: MIC
  MIC: > 128 µM
[10]
  MIC: > 128 µM
[4]; Table 8, NRS384, read-out: MIC
  MIC: > 128 µM
[5]; Table 8, NRS385, read-out: MIC
  MIC: > 128 µM

## CC(=O)c1sc(-c2ccc(-c3cc(C)cc(C)c3)cc2)nc1C [Compound M7, 1-(2-(3′,5′-dimethyl-[1,1′-biphenyl]-4-yl)-4-methylthiazol-5-yl)ethanone]
[6]; [11]
  MIC: > 128 µM

## CC(=O)c1sc(-c2ccc(-c3ccc(F)cc3)cc2)nc1C [Compound M8, 1-(2-(4′-fluoro-[1,1′-biphenyl]-4-yl)-4-methylthiazol-5-yl)ethanone]
[6]; [11]
  MIC: > 128 µM
[6]; [12]
  MIC: > 128 µM
[1]; [13]
  MIC: > 128 µM
[2]; [14]
  MIC: > 128 µM
[7]
  MIC: > 128 µM
[8]
  MIC: > 128 µM
[9]
  MIC: > 128 µM
[3]; Table 8, NRS123, read-out: MIC
  MIC: > 128 µM
[10]
  MIC: > 128 µM
[4]; Table 8, NRS384, read-out: MIC
  MIC: > 128 µM
[5]; Table 8, NRS385, read-out: MIC
  MIC: > 128 µM

## CC(=O)c1ccc(-c2ccc(-c3nc(C)c(C(C)=O)s3)cc2)cc1 [Compound M9, 1-(4′-(5-acetyl-4-methylthiazol-2-yl)-[1,1′-biphenyl]-4-yl)ethanone]
[6]; [11]
  MIC: > 128 µM
[6]; [12]
  MIC: > 128 µM
[1]; [13]
  MIC: > 128 µM
[2]; [14]
  MIC: > 128 µM
[7]
  MIC: > 128 µM
[8]
  MIC: > 128 µM
[9]
  MIC: > 128 µM
[3]; Table 8, NRS123, read-out: MIC
  MIC: > 128 µM
[10]
  MIC: > 128 µM
[4]; Table 8, NRS384, read-out: MIC
  MIC: > 128 µM
[5]; Table 8, NRS385, read-out: MIC
  MIC: > 128 µM

## CC(=O)c1sc(-c2cccc(F)c2)nc1C [Compound M15, 1-(2-(3-fluorophenyl)-4-methylthiazol-5-yl)ethanone]
[6]; Staphylococcus aureus, 20 h
  MIC: > 128 µM

## CCCCCCCC#Cc1ccc(-c2nc(C)c(/C(C)=N\NC(=N)N/N=C(\C)c3sc(-c4ccc(C#CCCCCCCC)cc4)nc3C)s2)cc1 [Compound M18]
[6]; Staphylococcus aureus, 20 h
  MIC: > 128 µM

## COc1cc(OC)cc(-c2ccc(-c3nc(C)c(C(C)=O)s3)cc2)c1 [Compound M19, 1-(2-(3′,5′-dimethoxy-[1,1′-biphenyl]-4-yl)-4-methylthiazol-5-yl)ethanone]
[6]; Staphylococcus aureus, 20 h
  MIC: > 128 µM

## [H]/N=C(/N)NN=C(C)c1sc(-c2cc[nH]n2)nc1C [Compound M20]
[6]; Table 6, MRSA ATCC 43300, 128 μM down to 1.0 μM, 20 hours, read-out: MIC
  MIC: 8 µM (≈ 2.11 µg/mL)

## CC(=O)c1sc(-c2ccc(-c3ccc(-c4nc(C)c(C(C)=O)s4)cc3)cc2)nc1C [Compound M21, 1,1′-(2,2′-([1,1′-Biphenyl]-4,4′-diyl)bis(4-methylthiazole-5,2-diyl))diethanone]
[6]; [11]
  MIC: > 128 µM

## CC(=O)c1sc(-c2cc[nH]n2)nc1C [Compound M22, 1-(4-Methyl-2-(1H-pyrazol-3-yl)thiazol-5-yl)ethanone]
[6]; [11]
  MIC: > 128 µM

## CC(=O)c1sc(-c2ccc(-c3ccc(-c4ccccc4)cc3)cc2)nc1C [Compound M23, 1-(2-([1,1′:4′,1″-Terphenyl]-4-yl)-4-methylthiazol-5-yl)ethanone]
[6]; [11]
  MIC: > 128 µM

## C/C(=N/NC(=N)N)c1sc(-c2cc[nH]n2)nc1C [Compound M24, (Z)-2-(1-(4-methyl-2-(1H-pyrazol-3-yl)thiazol-5-yl)ethylidene)hydrazinecarboximidamide]
[6]; [11]
  MIC: > 128 µM

## CCCCc1ccc(-c2nc(C)c(-c3nnn[nH]3)s2)cc1 [Compound R2, 2-(4-butylphenyl)-4-methyl-5-(1H-tetrazol-5-yl)thiazole]
[6]; [15]
  MIC: > 64 µM

## CCCCc1ccc(-c2nc(C)c(C(=O)NNC(=O)c3sc(-c4ccc(CCCC)cc4)nc3C)s2)cc1 [Compound R3, 2-(4-butylphenyl)-N′-(2-(4-butylphenyl)-4-methylthiazole-5-carbonyl)-4-methylthiazole-5-carbohydrazide]
[6]; [15]
  MIC: > 64 µM

## CCCCc1ccc(-c2nc(C)c(C(=O)NNC(=N)N)s2)cc1 [Compound R5, 2-(2-(4-butylphenyl)-4-methylthiazole-5-carbonyl)hydrazinecarboximidamide]
[6]; [15]
  MIC: > 64 µM

## CCCCc1ccc(-c2nc(C)c(C(N)=O)s2)cc1 [Compound R6, 2-(4-butylphenyl)-4-methylthiazole-5-carboxamide]
[6]; [15]
  MIC: > 64 µM

## CCCCc1ccc(-c2nc(C)c(C(=O)NC[C@@H](O)CO)s2)cc1 [Compound R8, (R)-2-(4-butylphenyl)-N-(2,3-dihydroxypropyl)-4-methylthiazole-5-carboxamide]
[4]; [16]
  MIC: 128 µM

## CCCCc1ccc(-c2nc(C)c(C(=O)NC[C@H](O)CO)s2)cc1 [Compound R9, (S)-2-(4-butylphenyl)-N-(2,3-dihydroxypropyl)-4-methylthiazole-5-carboxamide]
[4]; [16]
  MIC: 128 µM

## CCCCc1ccc(-c2nc(C)c(C(=O)NCCN(C)C)s2)cc1 [Compound R10, 2-(4-butylphenyl)-N-(2-(dimethylamino)ethyl)-4-methylthiazole-5-carboxamide]
[4]; [16]
  MIC: 128 µM

— patent US9353072B2, “Antimicrobial substituted thiazoles and methods of use” (Purdue Research Foundation, priority 2012, dated 2016)
